# In the Deep4Chem optical property database:
# Test: solvent given as SMILES
compound,measurement,setting,value
O=c1oc2ccccc2cc1-c1nc2ccccc2o1,emission maximum,in C1CCOC1,444 nm
same,emission maximum,in C1COCCO1,443 nm
same,emission maximum,in CC1CCCCC1,438 nm
same,emission maximum,in CC#N,443 nm
same,emission maximum,in CC(C)=O,444 nm
same,emission maximum,in CC(C)CO,445 nm
same,emission maximum,in CC(C)O,444 nm
same,emission maximum,in CCOC(C)=O,443 nm
same,emission maximum,in CN(C)C=O,445 nm
same,emission maximum,in CO,440 nm
same,emission maximum,in CS(C)=O,453 nm
same,emission maximum,in Cc1ccccc1,445 nm
same,emission maximum,in ClC(Cl)(Cl)Cl,444 nm
same,emission maximum,in ClC(Cl)Cl,443 nm
same,emission maximum,in OCCO,447 nm
Cc1ccc(N2C(c3ccccc3[N-]S(=O)(=O)c3ccc(C)cc3)=[NH+]C(c3ccccc3)C2c2ccccc2)cc1 (centres undefined),emission maximum,in Cc1ccccc1,499 nm
CCCCC(CC)CN1C(=O)c2cc(Oc3ccc(OC)cc3)c3c4c(Cl)cc5c6c(cc(Cl)c(c7c(Oc8ccc(OC)cc8)cc(c2c37)C1=O)c64)C(=O)N(c1c(C(C)C)cccc1C(C)C)C5=O (centres undefined),emission maximum,in Cc1ccccc1,614 nm
C[n+]1ccnc(/C=C/c2ccc(N(c3ccccc3)c3ccc(/C=C/c4c[n+](C)ccn4)cc3)cc2)c1,emission maximum,in CS(C)=O,530 nm
same,emission maximum,in OCC(O)CO,690 nm
Cc1cc(C)c(C2=C(c3c(C)sc(-c4ccc(-c5nc(-c6ccccc6)c(-c6ccccc6)[nH]5)cc4)c3C)C(F)(F)C(F)(F)C2(F)F)s1,emission maximum,in C1CCOC1,393 nm
C(=C\c1cnccn1)/c1ccc2nccnc2c1,emission maximum,in CCCCCC,403 nm
same,emission maximum,in CCO,435 nm
same,emission maximum,in CO,443 nm
same,emission maximum,in ClCCl,417 nm
same,emission maximum,in c1ccccc1,410 nm
COc1cc(OC)cc(C(=O)OCc2c(C)c(=O)n3c(=O)c(C)c(C)n23)c1,emission maximum,in CCO,462 nm
CCN(CC)c1ccc(/N=N/c2nc3ccc([N+](=O)[O-])cc3s2)cc1,emission maximum,in CC#N,607 nm
same,emission maximum,in ClCCl,603 nm
CCOC(=O)c1c2c3c(ccc(F)c3c3cc4c(cc13)[Si](C)(C)O[Si]4(C)C)N(C)C2=O,emission maximum,in CC#N,411 nm
F[B-]1(F)OC(c2ccccc2)=Nc2sc(-c3ccccc3)n[n+]21,emission maximum,in C1CCOC1,402 nm
same,emission maximum,in CC#N,415 nm
same,emission maximum,in CCO,409 nm
same,emission maximum,in CCOC(C)=O,411 nm
same,emission maximum,in CN(C)C=O,419 nm
same,emission maximum,in Cc1ccccc1,410 nm
same,emission maximum,in ClC(Cl)Cl,413 nm
same,emission maximum,in ClCCl,412 nm
CN(C)c1ccc(/C=C/c2ccncn2)cc1,emission maximum,in ClCCl,488 nm
CC1(C)CC(=O)c2cc(F)c(F)cc2N1,emission maximum,in CC#N,435 nm
same,emission maximum,in CCO,472 nm
CC(C)(C)c1ccc(-c2c(-c3ccc(-n4c5ccccc5c5ccccc54)cc3)c(C#N)c(-c3ccc(-n4c5ccccc5c5ccccc54)cc3)c(-c3ccc(C(C)(C)C)cc3)c2-c2ccc(C(C)(C)C)cc2)cc1,emission maximum,in C1CCOC1,406 nm
CCCCn1c2ccc(C#N)cc2c2cc(C#N)cc(-c3ccc(N(c4ccccc4)c4ccccc4)cc3)c21,emission maximum,in C1CCCCC1,407 nm
same,emission maximum,in C1CCOC1,440 nm
same,emission maximum,in CC#N,474 nm
same,emission maximum,in CCCCOCCCC,412 nm
same,emission maximum,in CCN(CC)CC,410.48 nm
same,emission maximum,in CCOC(C)=O,438 nm
same,emission maximum,in CCOCC,424 nm
same,emission maximum,in CN(C)C=O,472 nm
same,emission maximum,in Cc1ccccc1,415 nm
same,emission maximum,in ClC=C(Cl)Cl,420 nm
same,emission maximum,in ClCCl,447 nm
O=C1OC(c2ccccc2)=C/C1=C\c1ccc([N+](=O)[O-])cc1,emission maximum,in C1COCCO1,518 nm
C[Si]1(C)c2cc(-c3cccs3)ccc2C=Cc2ccc(-c3cccs3)cc21,emission maximum,in ClCCl,415 nm
COc1ccc(-c2nc(-c3cccc(OC)c3)[nH]c2-c2ccc(OC)cc2)cc1,emission maximum,in CO,399 nm
CCOC(=O)CCOc1ccc(C(c2c(C)[nH]c3ccccc23)c2c(C)[nH]c3ccccc23)cc1OC,emission maximum,in C1CCCCC1,330 nm
same,emission maximum,in CC#N,344 nm
same,emission maximum,in CO,350 nm
same,emission maximum,in O,351 nm
CC1(C)C(/C=C/C=C/C=C/C=C2/N(S(=O)(=O)[O-])c3ccc(S(=O)(=O)[O-])cc3C2(C)C)=[N+](S(=O)(=O)[O-])c2ccc(S(=O)(=O)[O-])cc21,emission maximum,in CO,776 nm
same,emission maximum,in O,771 nm
CCOC(=O)CCCCCn1c2ccc([N+](=O)[O-])cc2c(=O)c2cc3c(cc21)c(=O)c1cc([N+](=O)[O-])ccc1n3CCCCCC(=O)OCC,emission maximum,in ClCCl,553 nm
C[n+]1ccc(/C=C/c2ccc([O-])cc2)cc1,emission maximum,in CC#N,606 nm
same,emission maximum,in CC(C)=O,610 nm
same,emission maximum,in CC(C)O,594 nm
same,emission maximum,in CCCO,587 nm
same,emission maximum,in CCO,582 nm
same,emission maximum,in CN(C)C=O,608 nm
same,emission maximum,in CO,576 nm
same,emission maximum,in CS(C)=O,608 nm
same,emission maximum,in ClCCl,615 nm
same,emission maximum,in NC=O,577 nm
same,emission maximum,in O,560 nm
same,emission maximum,in OCCO,573 nm
